What was measured:
Test in all cases: Cell proliferation inhibition, carcinomas other than TNBC
Format in all cases: cell-based
[1] = tested on: BxPC3; settings: Homo sapiens, BXPC-3
Protocol: (§1) To check an ability to inhibit the growth of (MDA-MB-231) cells in two triple-negative breast cancer cell lines, a test was performed, as follows. Cells were seeded in 180 μL of a culture broth at a density of 2,000 to 3,000 cells/well in a white clear bottom 96-well plate (Corning) according to the growth ability of each cell, and then cultured for 24 hours under conditions of 5% CO2 and 37° C. Thereafter, the compound was prepared by diluting a 10 mM stock solution three-fold with 100% DMSO at a total of 12 concentrations so that a peak concentration of the compound was in a range of 10 mM to 0.05 μM, and the diluted compound was then diluted in each cell culture medium so that a final concentration of the compound was in a range of 100 μM to 0.5 nM. 20 μL of a diluted solution diluted with a medium was added to the cell solution in which cells were seeded in the 96-well plate on the previous day so that a final concentration of the diluted solution was in a range of 10 μM to 0.05 nM. Each of the cells was cultured for 5 days. To check cell viability, a mixture provided in a CellTiter-Glo® Luminescent Cell Viability Assay Kit (Promega) was added to each of the cultured cell media, and cultured for another 10 minutes under a condition of 37° C. Then, a degree of luminescence (fluorescence) was measured. A degree of inhibition of the cell growth according to the treatment concentration of each of the compounds was calculated based on the fluorescence of the solvent control cells which were not treated with the compound. In this case, the concentration of each of the compounds inhibiting 50% of the cell growth was determined to be a GI50 (nM) value, and calculated using Prism (Version 7.01; GraphPad) software.
(§2) Next, the activities of the Example compounds against various types of carcinomas other than the TNBC were evaluated in a similar manner as described above. In the following table, the following active value range (GI50 (nM)) was used to evaluate cell proliferation inhibitory activity.

[2] = tested on: HCT116; settings: Homo sapiens, HCT-116
Protocol: as §1, §2

[3] = tested on: A549; settings: Homo sapiens
Protocol: as §1, §2

[4] = tested on: DU145; settings: Homo sapiens, DU-145
Protocol: as §1, §2

Measured: GI50

COc1cc(N2CCCC2=O)ccc1Nc1cc(NC2CCCCC2)c2c(C#N)c[nH]c2n1 [Example 64, 4-(cyclohexylamino)-6-((2-methoxy-4-(2-oxopyrrolidin-1-yl)phenyl)amino)-1H-pyrrolo[2,3-b] pyridine-3-carbonitrile]
< 100 nM: all assays above

Reference: patent publication US20230183243A1, “HETEROARYL DERIVATIVES AND PHARMACEUTICAL COMPOSITION COMPRISING SAME AS ACTIVE INGREDIENT” (VORONOI INC., priority 2019, published 2023)
